We go through 20 molecules from patent US20230123334A1, “AMINO LIPID COMPOUND, PREPARATION METHOD THEREFOR, AND APPLICATION THEREOF” (SHENZHEN SHENXIN BIOTECHNOLOGY CO., LTD., priority 2020, published 2023).

The test system of the first assay is HEK293 cells. In words: Preliminary screening as mRNA vectors, EGFP mRNA transfection of HEK293 cells. The assay is classed as cell-based. The settings on record: HEK293 cells, 96-well plates, EGFP mRNA 50 ng per well; percentage of GFP fluorescent cells relative to total number of cells (Hoechst). The method in brief: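 Each well of HEK293 cells received 50 ng of EGFP mRNA. Efficiency was expressed as percent GFP-expressing cells over Hoechst-defined total cell number.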
Turning to `CCCCCCCCCCCCCCCCNc1nc(NCCCCCCCCCCCCCCC)nc(NCCCN(C)C)n1` [Compound N15N16D6], the “Absolute mRNA transfection efficiency in HEK293 cells” value (shortened to “Absolute mRNA transfection efficiency”) is recorded as 1.3%.

Turning to `CCCCCCCCCCCCCCCCNc1nc(NCCCCCCCCCCCCCCC)nc(NCCN(CC)CC)n1` [Compound N15N16D7], the “Absolute mRNA transfection efficiency” value is on record as 0.0%.

Take `CCCCCCCCCCCCCCCCNc1nc(NCCCCCCCCCCCCCCC)nc(NCCCN2CCOCC2)n1` [Compound N15N16D8]: the “Absolute mRNA transfection efficiency” value was determined as 0.0%.

As for `CCCCCCCCCCCCCCCCNc1nc(NCCCCCCCCCCCCCCC)nc(NCCCN2CCN(C)CC2)n1` [Compound N15N16D9], the “Absolute mRNA transfection efficiency” value was determined as 1.7%.

On to `CCCCCCCCCCCCCCCCNc1nc(NCCCCCCCCCCCCCCC)nc(NCC2CCN(C)CC2)n1` [Compound N15N16D10], for which the “Absolute mRNA transfection efficiency” value is 0.0%.

`CCCCCCCCCCCCCCCCCCNc1nc(NCCCCCCCCCCCCCCC)nc(NCCN(C)C)n1` [Compound N15N18D1]: the “Absolute mRNA transfection efficiency” value came to 0.0%.

For `CCCCCCCCCCCCCCCCCCNc1nc(NCCCCCCCCCCCCCCC)nc(NCCN2CCOCC2)n1` [Compound N15N18D2], the “Absolute mRNA transfection efficiency” value came to 0.0%.

On to `CCCCCCCCCCCCCCCCCCNc1nc(NCCCCCCCCCCCCCCC)nc(NCCN2CCCC2)n1` [Compound N15N18D3], for which the “Absolute mRNA transfection efficiency” value worked out at 8.6%.

Take `CCCCCCCCCCCCCCCCCCNc1nc(NCCCCCCCCCCCCCCC)nc(NCCN2CCCCC2)n1` [Compound N15N18D4]: the “Absolute mRNA transfection efficiency” value was 1.9%.

For the molecule `CCCCCCCCCCCCCCCCCCNc1nc(NCCCCCCCCCCCCCCC)nc(NCCN2CCN(C)CC2)n1` [Compound N15N18D5], the “Absolute mRNA transfection efficiency” value is 0.0%.

As for `CCCCCCCCCCCCCCCCCCNc1nc(NCCCCCCCCCCCCCCC)nc(NCCCN(C)C)n1` [Compound N15N18D6], the “Absolute mRNA transfection efficiency” value was found to be 8.6%.

On to `CCCCCCCCCCCCCCCCCCNc1nc(NCCCCCCCCCCCCCCC)nc(NCCN(CC)CC)n1` [Compound N15N18D7], for which the “Absolute mRNA transfection efficiency” value worked out at 8.3%.

Regarding `CCCCCCCCCCCCCCCCCCNc1nc(NCCCCCCCCCCCCCCC)nc(NCCCN2CCOCC2)n1` [Compound N15N18D8], the “Absolute mRNA transfection efficiency” value was 0.0%.

Consider `CCCCCCCCCCCCCCCCCCNc1nc(NCCCCCCCCCCCCCCC)nc(NCCCN2CCN(C)CC2)n1` [Compound N15N18D9], for which the “Absolute mRNA transfection efficiency” value came to 0.0%.

Turning to `CCCCCCCCCCCCCCCCCCNc1nc(NCCCCCCCCCCCCCCC)nc(NCC2CCN(C)CC2)n1` [Compound N15N18D10], the “Absolute mRNA transfection efficiency” value was found to be 7.4%.

For `CCCCCCCCCCCCCCCCNc1nc(NCCCCCCCCCCCCCCCC)nc(NCCN(C)C)n1` [Compound N16N16D1], the “Absolute mRNA transfection efficiency” value is reported as 9.5%.

On to `CCCCCCCCCCCCCCCCNc1nc(NCCCCCCCCCCCCCCCC)nc(NCCN2CCOCC2)n1` [Compound N16N16D2], for which the “Absolute mRNA transfection efficiency” value is listed as 0.0%.

On to `CCCCCCCCCCCCCCCCNc1nc(NCCCCCCCCCCCCCCCC)nc(NCCN2CCCC2)n1` [Compound N16N16D3], for which the “Absolute mRNA transfection efficiency” value was found to be 2.8%.

For `CCCCCCCCCCCCCCCCNc1nc(NCCCCCCCCCCCCCCCC)nc(NCCN2CCCCC2)n1` [Compound N16N16D4], the “Absolute mRNA transfection efficiency” value worked out at 0.0%.

On to `CCCCCCCCCCCCCCCCNc1nc(NCCCCCCCCCCCCCCCC)nc(NCCN2CCN(C)CC2)n1` [Compound N16N16D5], for which the “Absolute mRNA transfection efficiency” value is recorded as 0.0%.

Another assay relates to HEK293 cells. In words: Preliminary screening as DNA vectors, GFP transfection of HEK293 cells. It is filed as cell-based. The following applies: HEK293 cells; lipid/DOPE liposome with 75 ng plasmid DNA (psin-EGFP-IRES-Puro); number of cells expressing GFP divided by total number of nuclei (Hoechst). The method in brief:
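Lipid + DOPE liposomes (NaOAc, pH 5.6) complexed w/ 75 ng psin-EGFP-IRES-Puro, 30 min RT; added to 3-5×10^4 HEK293/well, 37° C. Hoechst 0.2 μg/mL at 20-24 h, imaged after further 20-24 h. Efficiency = GFP+ cells / total nuclei.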
As for `CCCCCCCCCCCCCCCCNc1nc(NCCCCCCCCCCCCCCC)nc(NCCCN(C)C)n1` [Compound N15N16D6], the “Absolute DNA transfection efficiency in HEK293 cells” value (from here on “Absolute DNA transfection efficiency”) came to 0.8%.

As for `CCCCCCCCCCCCCCCCNc1nc(NCCCCCCCCCCCCCCC)nc(NCCN(CC)CC)n1` [Compound N15N16D7], the “Absolute DNA transfection efficiency” value is recorded as 0.9%.

As for `CCCCCCCCCCCCCCCCNc1nc(NCCCCCCCCCCCCCCC)nc(NCCCN2CCOCC2)n1` [Compound N15N16D8], the “Absolute DNA transfection efficiency” value turned out to be 0.0%.

`CCCCCCCCCCCCCCCCNc1nc(NCCCCCCCCCCCCCCC)nc(NCCCN2CCN(C)CC2)n1` [Compound N15N16D9]: the “Absolute DNA transfection efficiency” value is 2.1%.

Consider `CCCCCCCCCCCCCCCCNc1nc(NCCCCCCCCCCCCCCC)nc(NCC2CCN(C)CC2)n1` [Compound N15N16D10], for which the “Absolute DNA transfection efficiency” value is 1.5%.

Consider `CCCCCCCCCCCCCCCCCCNc1nc(NCCCCCCCCCCCCCCC)nc(NCCN(C)C)n1` [Compound N15N18D1], for which the “Absolute DNA transfection efficiency” value came out at 0.0%.

Consider `CCCCCCCCCCCCCCCCCCNc1nc(NCCCCCCCCCCCCCCC)nc(NCCN2CCOCC2)n1` [Compound N15N18D2], for which the “Absolute DNA transfection efficiency” value amounted to 0.0%.

With `CCCCCCCCCCCCCCCCCCNc1nc(NCCCCCCCCCCCCCCC)nc(NCCN2CCCC2)n1` [Compound N15N18D3], the “Absolute DNA transfection efficiency” value was found to be 3.0%.

In the case of `CCCCCCCCCCCCCCCCCCNc1nc(NCCCCCCCCCCCCCCC)nc(NCCN2CCCCC2)n1` [Compound N15N18D4], the “Absolute DNA transfection efficiency” value was 1.6%.

Regarding `CCCCCCCCCCCCCCCCCCNc1nc(NCCCCCCCCCCCCCCC)nc(NCCN2CCN(C)CC2)n1` [Compound N15N18D5], the “Absolute DNA transfection efficiency” value is listed as 0.0%.

With `CCCCCCCCCCCCCCCCCCNc1nc(NCCCCCCCCCCCCCCC)nc(NCCCN(C)C)n1` [Compound N15N18D6], the “Absolute DNA transfection efficiency” value is reported as 0.6%.

With `CCCCCCCCCCCCCCCCCCNc1nc(NCCCCCCCCCCCCCCC)nc(NCCN(CC)CC)n1` [Compound N15N18D7], the “Absolute DNA transfection efficiency” value is on record as 3.2%.

For the molecule `CCCCCCCCCCCCCCCCCCNc1nc(NCCCCCCCCCCCCCCC)nc(NCCCN2CCOCC2)n1` [Compound N15N18D8], the “Absolute DNA transfection efficiency” value turned out to be 0.9%.

Turning to `CCCCCCCCCCCCCCCCCCNc1nc(NCCCCCCCCCCCCCCC)nc(NCCCN2CCN(C)CC2)n1` [Compound N15N18D9], the “Absolute DNA transfection efficiency” value stood at 0.7%.

For the molecule `CCCCCCCCCCCCCCCCCCNc1nc(NCCCCCCCCCCCCCCC)nc(NCC2CCN(C)CC2)n1` [Compound N15N18D10], the “Absolute DNA transfection efficiency” value came out at 3.5%.

In the case of `CCCCCCCCCCCCCCCCNc1nc(NCCCCCCCCCCCCCCCC)nc(NCCN(C)C)n1` [Compound N16N16D1], the “Absolute DNA transfection efficiency” value worked out at 1.3%.

For the molecule `CCCCCCCCCCCCCCCCNc1nc(NCCCCCCCCCCCCCCCC)nc(NCCN2CCOCC2)n1` [Compound N16N16D2], the “Absolute DNA transfection efficiency” value was 0.2%.

For `CCCCCCCCCCCCCCCCNc1nc(NCCCCCCCCCCCCCCCC)nc(NCCN2CCCC2)n1` [Compound N16N16D3], the “Absolute DNA transfection efficiency” value turned out to be 1.4%.

For `CCCCCCCCCCCCCCCCNc1nc(NCCCCCCCCCCCCCCCC)nc(NCCN2CCCCC2)n1` [Compound N16N16D4], the “Absolute DNA transfection efficiency” value came out at 0.9%.

For the molecule `CCCCCCCCCCCCCCCCNc1nc(NCCCCCCCCCCCCCCCC)nc(NCCN2CCN(C)CC2)n1` [Compound N16N16D5], the “Absolute DNA transfection efficiency” value was found to be 0.0%.
